In patent US9326512B2, “Synergistic combination of a flurochloridone compound and zinc pyrithione for dry film protection” (Rohm and Haas Company, priority 2013, dated 2016):

Test system: Chlorella sp. ATCC 7516
Test: Algal efficacy testing of dry paint films (modified ASTM 5589, 6-well plates)
Assay type: cell-based
Details: 3 weeks; for Total conc (lowest total biocide concentration in paint passing ≧75% inhibition): pass level ≧75% algal growth inhibition, dry paint film coupon
Protocol: These paints were then diluted with an antimicrobial free acrylic/silicone based paint and mixed to prepare targeted concentrations of antimicrobial compounds for the testing. The total biocides concentrations tested were 125, 250, 500, 1000, 2000 and 5000 ppm. After biocides addition or dilution, the paints were mixed 90 seconds with the horse power shaker (AXEL 75M3372/Agitateur SO-10MI) until uniformity was achieved. Paints containing different antimicrobial compounds at the same levels were mixed together in order to obtain the desired ratio of antimicrobial compounds. After one day, the paints were applied to Schleicher & Schuell filter paper at 280 μm wft and dried for 3 days at room temperature avoiding direct exposure to sunlight. Square discs (1.6 cm×1.6 cm) were cut out from each panel and were used as the substrate for algal efficacy tests. This sample size allowed for an agar border when the sample disc was placed into the well of the test plate.
Algal efficacy was tested according to modified ASTM 5589 which is a standard accelerated test method for determining resistance of various coatings (including paints) to algal defacement. To accommodate for high-throughput screening, this method was scaled down from petri dishes to 6-well plates. Bold Modified Basal Freshwater Nutrient Solution was used as growth medium. A single coated filter paper coupon was placed with a pair of sterile forceps at the center of the agar plug (on top) with the painted surface facing upwards.
Each well that contains a tested coupon was inoculated with 1750 μl of algal suspensions (1×10^6 cfu/ml) making sure that the whole surface (paint film as well as the agar surrounding it) was evenly covered. The plates were incubated at room temp (21° C.-25° C.) with cyclic exposure to light and dark phases, for a period of three weeks.
At the end of the three week incubation period, the samples were scored for percent inhibition regarding color intensity compared to the blank sample.
The Synergy Index calculation was performed as follows.
The SI is calculated based on F. C.
SI value of <1 in the formula indicates a synergism of the blended biocides exists.
The minimal targeted inhibition was set at 75%, meaning a coupon with at least 75% algal growth inhibition was considered as a pass.

Row | SMILES | Total conc (lowest total biocide concentration in paint passing ≧75% inhibition) | % inhibition (total conc 500 ppm in paint) | inhibition at 5000 ppm (504 h, total conc 5000 ppm in paint)
1 | [O-][n+]1ccccc1[S][Zn][S]c1cccc[n+]1[O-] [ZnPT, bis(2-pyridylthio)zinc 1,1′-dioxide] | 500 ppm | 95% | 
2 | O=C1C(Cl)C(CCl)CN1c1cccc(C(F)(F)F)c1 (stereo not shown) [Flurochloridone, 3-chloro-4-(chloromethyl)-1-[3-(trifluoromethyl)phenyl]-2-pyrrolidinone] | 5000 ppm |  | 85%
